According to the Kinase Knowledgebase extract (Sharma et al. 2016):

target: EGFR (human) (UniProt P00533)
Sequence (P00533 whole entry, looked up): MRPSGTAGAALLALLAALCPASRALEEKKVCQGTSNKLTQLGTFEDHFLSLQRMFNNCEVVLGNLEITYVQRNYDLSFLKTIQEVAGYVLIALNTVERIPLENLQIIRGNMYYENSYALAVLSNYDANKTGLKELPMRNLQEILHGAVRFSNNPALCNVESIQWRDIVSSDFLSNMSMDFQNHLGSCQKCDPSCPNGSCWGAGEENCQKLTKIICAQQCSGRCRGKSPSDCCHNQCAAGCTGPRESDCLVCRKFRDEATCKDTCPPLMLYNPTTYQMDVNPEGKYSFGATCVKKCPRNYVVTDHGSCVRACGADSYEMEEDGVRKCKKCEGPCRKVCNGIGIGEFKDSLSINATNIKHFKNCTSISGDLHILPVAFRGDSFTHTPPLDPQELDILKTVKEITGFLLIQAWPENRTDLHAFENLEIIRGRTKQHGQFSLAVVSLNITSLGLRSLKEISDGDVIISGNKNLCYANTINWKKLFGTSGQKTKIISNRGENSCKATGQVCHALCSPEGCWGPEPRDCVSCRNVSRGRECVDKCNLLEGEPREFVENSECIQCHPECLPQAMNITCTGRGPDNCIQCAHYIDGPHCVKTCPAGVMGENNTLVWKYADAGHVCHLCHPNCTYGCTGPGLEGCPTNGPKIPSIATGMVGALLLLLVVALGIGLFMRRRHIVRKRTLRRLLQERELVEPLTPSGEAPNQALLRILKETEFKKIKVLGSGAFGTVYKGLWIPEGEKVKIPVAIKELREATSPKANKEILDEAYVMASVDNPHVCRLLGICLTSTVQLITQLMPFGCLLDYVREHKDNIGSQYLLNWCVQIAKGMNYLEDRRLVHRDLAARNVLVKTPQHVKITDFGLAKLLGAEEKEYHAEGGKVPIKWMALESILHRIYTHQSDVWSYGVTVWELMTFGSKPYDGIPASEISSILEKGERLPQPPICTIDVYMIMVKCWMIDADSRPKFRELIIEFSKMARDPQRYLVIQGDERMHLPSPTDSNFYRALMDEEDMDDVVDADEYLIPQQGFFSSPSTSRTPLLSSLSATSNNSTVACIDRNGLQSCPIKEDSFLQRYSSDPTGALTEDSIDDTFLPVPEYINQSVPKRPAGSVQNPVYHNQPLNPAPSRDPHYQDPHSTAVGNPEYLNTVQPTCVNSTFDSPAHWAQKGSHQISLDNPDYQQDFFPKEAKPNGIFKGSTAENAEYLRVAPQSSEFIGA

IC50, > 50 µM:
O=C(Nc1ccc(F)cc1)c1cc(I)ccc1O, Cc1ccc(C(=O)Nc2ccc(F)cc2F)c(O)c1, Cc1ccc(C(=O)Nc2ccc(Cl)cc2)c(O)c1, Cc1ccc(C(=O)Nc2ccc(C(C)C)cc2)c(O)c1, O=C(Nc1ccc(F)cc1)c1cc(Br)cc(Br)c1O, O=C(Nc1ccc(Br)cc1)c1ccccc1O, Cc1ccc(C(=O)Nc2ccccc2)c(O)c1, O=C(Nc1ccc(F)cc1)c1ccccc1O, O=C(Nc1ccccc1)c1ccccc1O, O=C(Nc1ccc(F)cc1F)c1ccccc1O
